Experiments:
[1] = molecular target: T1, HiBit-KRAS^G12C (Homo sapiens, UniProt P01116, G12C); assay: HiBit degradation assay in MiaPaCa-2 HiBit-KRas^G12C cells; format: cell-based; conditions: 24 hours; for Dmax: maximum degradation; for DC50: read-out: KRas^G12C-HiBiT (MiaPaCa; 0.5% DMSO) IC50
In short: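 DC50 and Dmax come from 4-parameter fits of DMSO-normalized HiBit luminescence after 24 hours' exposure at 37° C to 10 μM–20 nM compound in 0.1% or 0.5% DMSO. Cells: MiaPaCa-2 carrying one endogenously HiBit-tagged KRAS^G12C allele; concentrations causing ≥50% […] viability loss (alamar blue) excluded.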

[2] = molecular target: T1, HiBit-KRAS^G12C; assay: HiBit degradation assay in SW1573 HiBit-KRas^G12C cells; format: cell-based; set-up: expressed in transfected cells; host or cells: SW1573 (clone E6), modified pcDNA3.1 vector, TK promoter; conditions: 24 hours; for DC50: SW1573 HiBit-KRas^G12C; for Dmax: SW1573, SW1573 HiBit-KRas^G12C, read-out: KRas^G12C-HiBiT (SW1573; 0.5% DMSO) Dmax**
In short: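 HiBit-KRAS G12C degradation was measured after a 24 h compound exposure (titrated 10 μM–20 nM) in engineered SW1573 cells. Lytic HiBit luminescence, expressed relative to DMSO controls, yielded DC50 and Dmax from 4-parameter fits. Concentrations causing ≥50% loss in alamar blue viability were omitted as cytotoxic.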

[3] = MiaPaCa-2 HiBit-KRas^G12C cells, 0.5% DMSO
[4] = read-out: KRas^G12C-HiBiT (SW1573; 0.5% DMSO) IC50***, 0.5% DMSO
[5] = MIA PaCa-2, MiaPaCa-2 HiBit-KRas^G12C cells, 0.5% DMSO, read-out: KRas^G12C-HiBiT (MiaPaCa; 0.5% DMSO) DMax

T1 sequence (P01116 1-186 isoform P01116-2 G12C limits assumed): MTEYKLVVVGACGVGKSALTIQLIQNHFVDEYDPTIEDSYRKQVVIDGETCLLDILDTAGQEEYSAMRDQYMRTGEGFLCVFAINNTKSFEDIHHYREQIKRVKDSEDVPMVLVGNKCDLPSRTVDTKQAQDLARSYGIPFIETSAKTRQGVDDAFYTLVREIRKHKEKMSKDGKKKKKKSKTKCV

| DC50 [1, 3] | DC50 [2, 4] | Dmax [1, 5] | Dmax ([2]; 0.5% DMSO) | SMILES | Dmax ([1]; MIA PaCa-2, read-out: KRas^G12C-HiBiT (MiaPaCa; 0.1% DMSO) DMax, MiaPaCa-2 HiBit-KRas^G12C cells, 0.1% DMSO) | DC50 ([2]; 0.1% DMSO, read-out: KRas^G12C-HIBit (SW1573; 0.1% DMSO) DC50*) |
| --- | --- | --- | --- | --- | --- | --- |
| – | – | – | – | C=CC(=O)N1CCN(c2nc(OCCN3CCC(COCC(=O)N[C@H](C(=O)N4C[C@@H](O)C[C@H]4C(=O)N[C@@H](C)c4ccc(-c5scnc5C)cc4)C(C)(C)C)CC3)nc3c(F)c(-c4cc(O)cc5ccccc45)c(Cl)cc23)C[C@@H]1CC#N [Compound 6, (2S,4S)-1-[(2S)-2-[2-({1-[2-({6-chloro-4-[(3S)-3-(cyanomethyl)-4-(prop-2-enoyl)piperazin-1-yl]-8-fluoro-7-(3-hydroxynaphthalen-1-yl)quinazolin-2-yl}oxy)ethyl]piperidin-4-yl}methoxy)acetamido]-3,3-dimethylbutanoyl]-4-hydroxy-N-[(1S)-1-[4-(4-methyl-1,3-thiazol-5-yl)phenyl]ethyl]pyrrolidine-2-carboxamide] | 35 to 70% | > 1 µM |
| > 1 µM | > 1 µM | – | – | C=C(F)C(=O)N1CCN(c2nc(OCCN3CCC(COc4cc([C@@H](C(=O)N5C[C@H](O)C[C@H]5C(=O)N[C@@H](C)c5ccc(-c6scnc6C)cc5)C(C)C)on4)CC3)nc3c(F)c(-c4cc(O)cc5ccccc45)c(Cl)cc23)C[C@@H]1CC#N [Compound 171, (2S,4R)-1-[(2S)-2-[3-({1-[2-({6-chloro-4-[(3S)-3-(cyanomethyl)-4-(2-fluoroprop-2-enoyl)piperazin-l-yl]-8-fluoro-7-(3-hydroxynaphthalen-1-yl)quinazolin-2-yl}oxy)ethyl]piperidin-4-yl}methoxy)-1,2-oxazol-5-yl]-3-methylbutanoyl]-4-hydroxy-N-[(1S)-1-[4-(4-methyl-1,3-thiazol-5-yl)phenyl]ethyl]pyrrolidine-2-carboxamide] | – | – |
| > 1 µM | 0.1 to 1 µM | 35 to 70% | 35 to 70% | Cc1ncsc1-c1ccc([C@H](C)NC(=O)[C@@H]2C[C@@H](O)CN2C(=O)[C@@H](NC(=O)COCC2CCN(CCOc3nc(N4CCN(C(=O)/C=C/CN5CCOCC5)[C@@H](CC#N)C4)c4cc(Cl)c(-c5cc(O)cc6ccccc56)c(F)c4n3)CC2)C(C)(C)C)cc1 [Compound 164, (2S,4R)-1-[(2S)-2-[2-({1-[2-({6-chloro-4-[(3S)-3-(cyanomethyl)-4-[(2E)-4-(morpholin-4-yl)but-2-enoyl]piperazin-1-yl]-8-fluoro-7-(3-hydroxynaphthalen-1-yl)quinazolin-2-yl}oxy)ethyl]piperidin-4-yl}methoxy)acetamido]-3,3-dimethylbutanoyl]-4-hydroxy-N-[(1S)-1-[4-(4-methyl-1,3-thiazol-5-yl)phenyl]ethyl]pyrrolidine-2-carboxamide] | – | – |
| 0.1 to 1 µM | 0.1 to 1 µM | > 70% | > 70% | C=CC(=O)N1CCN(c2nc(OCCN3CCC(COCC(=O)N[C@H](C(=O)N4C[C@H](O)C[C@H]4C(=O)N[C@@H](C)c4ccc(-c5scnc5C)cc4)C(C)(C)C)CC3)nc3c(F)c(-c4nc(NC)cc(C)c4C(F)(F)F)c(Cl)cc23)C[C@@H]1CC#N [Compound 98, (2S,4R)-1-[(2S)-2-[2-({1-[2-({6-chloro-4-[(3S)-3-(cyanomethyl)-4-(prop-2-enoyl)piperazin-1-yl]-8-fluoro-7-[4-methyl-6-(methylamino)-3-(trifluoromethyl)pyridin-2-yl]quinazolin-2-yl}oxy)ethyl]piperidin-4-yl}methoxy)acetamido]-3,3-dimethylbutanoyl]-4-hydroxy-N-[(1S)-1-[4-(4-methyl-1,3-thiazol-5-yl)phenyl]ethyl]pyrrolidine-2-carboxamide] | – | – |
